Test results from US8455225B2, “Yeast with increased butanol tolerance involving high osmolarity/glycerol response pathway” (Butamax Advanced Biofuels LLC, priority 2008, dated 2013).

How the values were obtained:
PBS2 deletion strains = conditions: homozygous deletion set screens (Fuijta et al. 2006; van Voorst et al. 2006) and other literature; cited from earlier work
haploid cells = conditions: Lorenz et al. 2000; cited from earlier work
[1] = test system: PBS2p over-producing strain; assay: Growth yield in the presence of isobutanol, PBS2 ORF overexpressed from GAL1 promoter; format: cell-based, Saccharomyces cerevisiae; conditions: 1% isobutanol, PBS2p over-producing strain vs BY4741
Experimental: The effect of overexpression of the PBS2 coding region was assessed as follows. A Yeast ORF collection (Gelperin, White et al. (2005) Genes Dev. 19(23):2816-2826)_is available from Open Biosystems (Huntsville, Ala.). In this collection yeast ORFs are expressed from the GAL1 promoter in the vector BG1805. This vector can be introduced into ura3 yeast mutants and transformants selected for uracil prototrophy. In the presence of galactose and the absence of glucose, expression from the GAL1 promoter is elevated about 1000 fold relative to the barely detectable level observed with glucose grown cells (Johnston and Davis (1984) Mol. Cell. Biol. 4(8):1440-1448). Note that each ORF encodes a fusion protein of the form:
A plasmid containing the PBS2 ORF was obtained from this collection (YSC3867-9523439) and transformed into yeast strain BY4741 selecting for uracil prototrophy. […] Growth yield was measured by the following method. […] Absorbance was recorded.
Cultures were grown for 2-3 hours to allow one doubling. Absorbance was recorded at this time and was called T=0. […] OD600 was measured after incubation on a roller drum for 2 days. […] Percent growth was calculated as 100×[average A600 of the triplicate isobutanol challenged cultures/average A600 of the triplicate control cultures.

[2] = test system: translation at the initiation step; conditions: Ashe et al. 2001; cited from earlier work

Compound | hypersensitivity of PBS2 deletion strains (PBS2 deletion strains) | other results
O[C@H](CS)[C@H](O)CS (racemic) [dithiothreitol] | hypersensitive | 
CCCCO [1-butanol] |  | effect on growth morphology (haploid cells): stimulates filamentous growth in haploid cells
OCCS [2-mercaptoethanol] | hypersensitive | 
[Ca+2].[Cl-].[Cl-] [CaCl2] | hypersensitive | 
[Cl-].[Na+] [NaCl] | hypersensitive | 
CCO [ethanol] | not found to be hypersensitive | 
CC(C)CO [isobutanol] |  | improvement in growth yield over the parental strain [1]: 41%
COC(=O)Nc1nc2ccc(C(=O)c3cccs3)cc2[nH]1 [nocodazole] | hypersensitive | 
CCCCCO [pentanol] | not found to be hypersensitive | 
CCCO [propanol] | not found to be hypersensitive | 
O=[As][O-].[Na+] [sodium metaarsenite] | hypersensitive | 
OC[C@@H](O)[C@@H](O)[C@H](O)[C@@H](O)CO [sorbitol] | hypersensitive | 
butanol |  | effect on translation [2]: rapid inhibition of translation at the initiation step
tunicamycin | hypersensitive | 
